Patent publication US20030032000A1, “Method for analyzing cellular events” (Signature BioScience Inc., priority 2001, published 2003)

Key:
CHOk1 cells = assay: MCS cellular activity assay in un-transfected CHOk1 wild-type cells; conditions: various concentrations of carbachol, signal integrated over 50 MHz to 1 GHz
calcium flux = assay: MCS detection of calcium flux modifiers in wild-type and transfected cells; type: cell-based, Chinese Hampster
Procedure: Ability to detect other calcium flux modifies was tested using ionomycin (an ionophore).

Structure (SMILES)	integrated MCS signal over time versus buffer (CHOk1 cells)	inhibition of ionomycin effect, MCS (calcium flux)
C[N+](C)(C)CCOC(N)=O [carbachol]	essentially no change in signal over time	
C/C=C(/C)C(=O)O[C@H]1C(C)=C2[C@H]([C@@H]1OC(=O)CCCCCCC)[C@@](C)(OC(C)=O)C[C@H](OC(=O)CCC)[C@@]1(O)[C@H]2OC(=O)[C@@]1(C)O [thapsigargin]		inhibit ionomycin
